# Results: PubChem BioAssay (NCI)
#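 Assay format: 96-well plates, 48-hour exposure. At the GI50, growth is halved. TGI: concentration producing complete growth inhibition.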
# What was measured:
# Test in all cases: growth of human tumour cells (NCI), 48 h
# [1] = test system: 786-0 renal
# [2] = test system: A549 NSCLC
# [3] = test system: ACHN renal
# [4] = test system: BT-549 breast
# [5] = test system: CAKI-1 renal
# [6] = test system: CCRF-CEM leukemia
# [7] = test system: COLO 205 colon
# [8] = test system: DU-145 prostate
# [9] = test system: HCT-116 colon
# [10] = test system: HCT-15 colon
# [11] = test system: HL-60(TB) leukemia
# [12] = test system: HOP-62 NSCLC
# [13] = test system: HS 578T breast
# [14] = test system: HT29 colon
# [15] = test system: K-562 leukemia
# [16] = test system: LOX IMVI melanoma
# [17] = test system: M14 melanoma
# [18] = test system: MALME-3M melanoma
# [19] = test system: MCF7 breast
# [20] = test system: MDA-MB-231 breast
# [21] = test system: MDA-MB-435
# [22] = test system: MOLT-4 leukemia
# [23] = test system: NCI-H460 lung
# [24] = test system: NCI-H522 lung
# [25] = test system: NCI/ADR-RES ovarian
# [26] = test system: OVCAR-4 ovarian
# [27] = test system: OVCAR-5 ovarian
# [28] = test system: OVCAR-8 ovarian
# [29] = test system: PC-3 prostate
# [30] = test system: RPMI-8226 leukemia
# [31] = test system: RXF 393 renal
# [32] = test system: SF-268 CNS
# [33] = test system: SF-539 CNS
# [34] = test system: SK-MEL-28 melanoma
# [35] = test system: SK-MEL-5 melanoma
# [36] = test system: SK-OV-3 ovarian
# [37] = test system: SN12C renal
# [38] = test system: SNB-19 CNS
# [39] = test system: SNB-75 CNS
# [40] = test system: SR leukemia
# [41] = test system: SW-620 colon
# [42] = test system: U251 CNS
# [43] = test system: UACC-257 melanoma
# [44] = test system: UACC-62 melanoma
# [45] = test system: UO-31 renal
compound,measurement,setting,value
O=C1c2c(c3c4cc(Br)ccc4[nH]c3c3ccc4ccccc4c23)C(=O)N1CCN1CCCCC1,GI50,[1],1680 nM
same,TGI,[1],3.1 µM
same,GI50,[2],1380 nM
same,TGI,[2],2740 nM
same,GI50,[3],783 nM
same,TGI,[3],2030 nM
same,GI50,[4],9.5 µM
same,TGI,[4],> 100 µM
same,GI50,[5],1290 nM
same,TGI,[5],2790 nM
same,GI50,[6],331 nM
same,TGI,[6],2180 nM
same,GI50,[7],1430 nM
same,TGI,[7],3.15 µM
same,GI50,[8],1100 nM
same,TGI,[8],2480 nM
same,GI50,[9],1200 nM
same,TGI,[9],2520 nM
same,GI50,[10],1540 nM
same,TGI,[10],3.52 µM
same,GI50,[11],1440 nM
same,TGI,[11],6.1 µM
same,GI50,[12],689 nM
same,TGI,[12],2030 nM
same,GI50,[13],2040 nM
same,TGI,[13],4.89 µM
same,GI50,[14],1230 nM
same,TGI,[14],2560 nM
same,GI50,[15],912 nM
same,TGI,[15],3.3 µM
same,GI50,[16],1180 nM
same,TGI,[16],2660 nM
same,GI50,[17],1360 nM
same,TGI,[17],2810 nM
same,GI50,[18],1620 nM
same,TGI,[18],3.11 µM
same,GI50,[19],178 nM
same,TGI,[19],1770 nM
same,GI50,[20],1570 nM
same,TGI,[20],3.22 µM
same,GI50,[21],1610 nM
same,TGI,[21],3.11 µM
same,GI50,[22],314 nM
same,TGI,[22],2530 nM
same,GI50,[23],390 nM
same,TGI,[23],1520 nM
same,GI50,[24],1230 nM
same,TGI,[24],2690 nM
same,GI50,[25],1280 nM
same,TGI,[25],3.34 µM
same,GI50,[26],1800 nM
same,TGI,[26],3.68 µM
same,GI50,[27],1850 nM
same,TGI,[27],3.39 µM
same,GI50,[28],1210 nM
same,TGI,[28],2590 nM
same,GI50,[29],1470 nM
same,TGI,[29],2930 nM
same,GI50,[30],1630 nM
same,TGI,[30],3.94 µM
same,GI50,[31],1480 nM
same,TGI,[31],2930 nM
same,GI50,[32],1440 nM
same,TGI,[32],4.08 µM
same,GI50,[33],1570 nM
same,TGI,[33],3.08 µM
same,GI50,[34],1770 nM
same,TGI,[34],3.29 µM
same,GI50,[35],1770 nM
same,TGI,[35],3.27 µM
same,GI50,[36],2660 nM
same,TGI,[36],> 100 µM
same,GI50,[37],1440 nM
same,TGI,[37],3.16 µM
same,GI50,[38],1720 nM
same,TGI,[38],> 100 µM
same,GI50,[39],1520 nM
same,TGI,[39],3.44 µM
same,GI50,[40],100 nM
same,TGI,[40],1840 nM
same,GI50,[41],1040 nM
same,TGI,[41],2390 nM
same,GI50,[42],884 nM
same,TGI,[42],2130 nM
same,GI50,[43],1690 nM
same,TGI,[43],3.2 µM
same,GI50,[44],1970 nM
same,TGI,[44],7.3 µM
same,GI50,[45],1500 nM
same,TGI,[45],3 µM
